Source: paper PMC6670186, “Novel prodrugs of decitabine with greater metabolic stability and less toxicity” (Clinical Epigenetics, 2019)
“Also recorded” adds a separate entry of the source. Read-outs that look alike come from different tables or passages of the source. Marks after values point to notes of the source that are not given here.

Tests used:
TMK1 cells = assay: Cell viability (WST-8), TMK1; type: cell-based
Experimental: (§1) Cells were seeded at a density of 1 × 10^3 to 5 × 10^3 cells/well in a 96-well microplate or 1 × 10^4 to 5 × 10^4 cells/well in a six-well microplate on day 0 in triplicate, followed by treatment with drugs on day 1. The cell growth of HCT116 was estimated using IncuCyte (Essen BioScience, K.K.; Tokyo, Japan) for 94 h. The cell viability of SW480, HT29, and TMK1 was evaluated using a WST-8 [2-(2-methoxy-4-nitrophenyl)-3-(4-nitrophenyl)-5-(2, 4-disulfophenyl)-2H tetrazolium, monosodium salt] assay (Nacalai Tesque Inc., Kyoto, Japan). The numbers of cells of RKO, breast cancer cell lines, sarcoma cell lines, and neuroblastoma cell lines were counted using a microscope. The half-maximum inhibitory concentration (IC50) was obtained using the non-linear regression analysis of log (inhibitor) versus the normalized response with a variable slope using the GraphPad Prism software (GraphPad Software; La Jolla, CA).

[1] = Pharmacokinetics in mice, intraperitoneal; type: in vivo; settings: for AUC 0 → lim, Total: OR compound + metabolite DAC; for AUC 0 → lim, OR compound: dose equimolar to 0.20 mg/kg DAC
Experimental: Six-week-old female ICR mice were intraperitoneally injected with 0.20 mg/kg of DAC, 0.29 mg/kg of OR-2003, 0.32 mg/kg of OR-2009, 0.30 mg/kg of OR-2100, and 0.31 mg/kg of OR-2102. The doses were decided so that equivalent amounts of molar concentration would be administered. The blood plasma was collected before and at 5, 15, 30, 45, 60, 90, and 120 min after the treatment. All experimental procedures were approved by the Committee of National Cancer Center.

HCT116 cells = assay: Cell growth inhibition, HCT116; type: cell-based, Human
Experimental: as §1

SFRP1 and UCHL1 = assay: RT-qPCR of tumor-suppressor genes after pulse exposure; type: cell-based, Human; settings: HML58-3 cells, 1.0 μM for 1 h
Experimental: Complementary DNA (cDNA) was synthesized from DNase-treated total RNA (1 μg) using oligo-(dT) 20 (Thermo Fisher Scientific; Waltham, MA) and SuperScript IV Reverse Transcriptase (Thermo Fisher Scientific). The number of cDNA molecules was quantified using qRT-PCR. The primer sequences and PCR conditions are shown in Additional file 1: Table S1. The copy number of each sample was calculated by comparing the amplification curve with those of standard DNA samples with known copy number. The number of target cDNA molecules was normalized to that of GAPDH cDNA molecules.

[2] = Adverse effects in xenograft-bearing nude mice (body weight, blood count, biochemical tests); type: in vivo; settings: for WBC count and liver function: doses equimolar to that of DAC
Experimental: (§2) HCT116 cells (5.0 × 10^6 cells per mouse) were subcutaneously injected into the inguinal region of 6-week-old female nude mice (n = 81) (BALB/c-nu/nu; CLEA Japan, Tokyo, Japan). Once tumors reached an average volume of 80 mm^3, mice bearing xenograft tumors were randomly divided into nine groups and treated intraperitoneally with vehicle (5% DMSO in 10% 2-hydroxypropyl-β-cyclodextrin solution), DAC, OR-2003, or OR-2100. The length and width of tumors were measured with standard calipers twice per week, and tumor volumes were calculated using the formula tumor volume = (length × width^2) × 0.5. Body weight was measured twice per week. […] The remaining mice were categorized as group 1 and continuously treated with drugs. At 29 days after the treatment, tumors, major organs, bone marrow, and blood serum were collected from six mice and blood count and biochemical tests were performed. The mice were maintained under standard conditions according to the institutional guidelines for animal care.

[3] = molecular target: T1, human recombinant cytidine deaminase (Homo sapiens, UniProt P32320); assay: Stability in the presence of cytidine deaminase; type: in vitro ADME
T1 construct: His; purchased AT Gen Co. Ltd; Seoul, Korea
From the text: The remaining of the starting derivatives were continuously assayed using HPLC analytical conditions as described above.

HML58-3 cells [4] = assay: Genome-wide DNA methylation analysis (Infinium MethylationEPIC); type: cell-based, Human; settings: 1 μM
Experimental: Genome-wide DNA methylation analysis was performed using an Infinium Human MethylationEPIC BeadChip (Infinium EPIC; Illumina; Sam Diego, CA) as described previously. The BeadArray assessed the degree of methylation of 862,927 CpG probes as beta-values that ranged from 0 (unmethylated) to 1 (fully methylated). To reduce the data size and obtain data that were easy to handle, the CpG probes were grouped into 548,546 genomic blocks (GBs), which consisted of probes within 500 bp.

[5] = system: exogenous UCHL1 promoter and OSR2 promoter CpG island; assay: Quantitative methylation-specific PCR of marker genes; type: cell-based, Human; settings: qMSP; for DNA demethylation after pulse exposure: HML58-3 cells, 1.0 μM for 1 h; for DNA demethylation of exogenous UCHL1 promoter and OSR2 promoter CpG island: 0.0 to 10.0 μM
Experimental: One microgram of EcoRV-digested genomic DNA was treated with sodium bisulfite as described previously. Bisulfite-treated DNA was resuspended in 40 μL of TE-buffer (10 mM Tris, pH 8.0; 1 mM EDTA, pH 8.0), and 1 μL was used for quantitative methylation-specific PCR (qMSP) using primers specific to methylated and unmethylated target loci, including MetLuc-UCHL1 promoter, OSR2 promoter, and UCHL1 promoter (Additional file 1: Table S1). As a fully unmethylated DNA control, genomic DNA from peripheral blood cells of a healthy person was amplified twice using a GenomiPhi DNA amplification kit (GE Healthcare Life Sciences; Little Chalfont, UK). As a fully methylated DNA control, the fully unmethylated DNA was methylated by SssI methylase (New England Biolabs; Beverly, MA).

RKO cells = assay: Cell growth inhibition, RKO; type: cell-based, Human
Experimental: as §1

[6] = Partition coefficient (log P), shake-flask method, n-octanol/PBS; type: physicochemical
Experimental: The method employed HPLC with the following conditions: ZORBAX Bonus C18 column (4.6 × 150 mm, 3 μm); eluent: A = 10 mM HCO2NH4, B = acetonitrile, A:B = 50:50 (an isocratic mode for 5 min), and A:B = 99:1–20:80 (a gradient mode for 15 min); flow rate = 1.0 mL/min; oven temperature = 40 °C; detection = 240 nm.

[7] = Stability in phosphate-buffered saline; type: physicochemical; settings: for Stability t1/2 in PBS: PBS 37 °C, 20** + x h, 20 h = t1/2 in PBS of DAC, x = OR compound; for t1/2 in PBS: PBS solution at 37°C
Experimental: Five microliters of DAC derivatives (1.0 mg/100 μL of DMSO) was added to 200 μL of a stirred PBS solution at 37 °C. The mixture was stirred continuously for 1 day. The remaining of the starting derivatives was assayed using the HPLC analytical conditions as described above.

HCT116 xenografts = assay: Xenograft tumor formation assay in nude mice; type: in vivo; settings: for DNA demethylation of two promoters in xenograft tumors: group 2 mice; for tumor growth (tumor volume): intraperitoneal, twice per week
Experimental: as §2

HML58-3 = assay: Expression microarray; type: cell-based, Human; settings: 1 μM, 58,341 probes
Experimental: Cy3-labeled cRNA was synthesized from 100 ng of total RNA using a Low Input Quick Amp Labeling Kit, One-Color (Agilent Technologies, Santa Clara, CA), and 600 ng of labeled cRNA was fragmented and hybridized to SurePrint G3 Human Gene Expression 8 x 60K v3 Microarray (Agilent Technologies). The hybridized microarray was scanned with an Agilent G2600D microarray scanner (Agilent Technologies). The scanned data were processed using Feature Extraction software (Agilent Technologies) and analyzed using GeneSpring software (Agilent Technologies). The 75th percentile of the signal intensity of all probes was normalized to be 0, and the genes with signal intensities of − 1 or more were regarded as showing positive expression.

[8] = set-up: method as in Yoo C.B. et al. Cancer Research 2007; 67:6400–6408; settings: ref Yoo C.B. et al. Cancer Research 2007, 67:6400–6408; cited from earlier work
DNMT1 = DNMT1 western blot; type: cell-based, Human; settings: HML58-3 cells
Experimental: Cells were seeded at a density of 3 × 10^5 cells/10-cm dish and treated with appropriate drug(s) 24 h after the initial seeding. On day 5, the cells were lysed in RIPA buffer (20 mM Tris-HCl, pH 7.6; 150 mM NaCl; 1 mM EDTA; 0.1% SDS; and 1% NP-40) containing 3 mM dithiothreitol, proteinase inhibitor cocktail (Nacalai Tesque; Kyoto, Japan). Proteins were resolved by SDS-PAGE and transferred to an Immobilon-P […] membrane (Merck Millipore; Billerica, MA). After blocking, each membrane was incubated with rabbit anti-DNMT1 antibody (Abcam, 1:1000) or mouse anti-PARP antibody (BD, 1:1000). Following three cycles of 10-min washes with PBS supplemented with 0.5% Tween 20 (PBS-T), blots were incubated with secondary antibodies (rabbit IgG, 1:1000; mouse IgG, 1:10000) and rewashed. Chemiluminescence was detected using an ECL kit (Biological Industries).

HML58-3 cells [9] = assay: Luciferase reporter assay for DNA demethylation; type: cell-based, Human; settings: 0.1 and 1.0 μM for 1 h, analyzed on day 5
Experimental: Cells were seeded at a density of 5 × 10^3 cells/well in a 96-well microplate on day 0 in triplicate, and 5 × 10^4 cells/well in a six-well plate on day 0. On day 1, the medium was replaced with a medium containing a specific concentration of a drug, which was freshly dissolved in DMSO and filtered through a 0.2-μ filter. On day 5, the supernatant from each well of the 96-well microplate was collected to measure luminescence. Luminescence was measured using the Ready-To-Glow^TM Secreted Luciferase Reporter Assay (Clontech; Mountain View, CA) and a multimode plate reader ARVO^TMMX (PerkinElmer Japan Co Ltd.; Kanagawa, Japan).

[10] = plasma, DAC (metabolite for OR compounds), equimolar dose

T1 sequence (P32320 whole entry): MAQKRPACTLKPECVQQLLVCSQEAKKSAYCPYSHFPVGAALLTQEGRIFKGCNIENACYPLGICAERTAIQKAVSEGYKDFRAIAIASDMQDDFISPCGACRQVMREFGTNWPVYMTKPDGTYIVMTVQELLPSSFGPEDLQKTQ

With `CCC[Si](C)(C)OC[C@H]1O[C@@H](n2cnc(N)nc2=O)C[C@@H]1O` [OR-2003] the IC50 (TMK1 cells) was 2840 nM, the “total AUC of OR compound and metabolite DAC compared with DAC” value [1] was “larger AUCs than that of DAC” and the Cmax ([1]; comparison among four OR compounds) was “highest Cmax”. For the same compound, the “AUC 0 → lim, DAC” value [1, 10] was 0.338 µM·h, the “AUC 0 → lim, Total” value ([1]; plasma) was 0.643 µM·h and the “AUC 0 → lim, OR compound” value ([1]; plasma) was 0.305 µM·h. The IC50 (HCT116 cells) was 910 nM, the “expression level of SFRP1 and UCHL1 after pulse exposure” value (SFRP1 and UCHL1) was “twice as high as that induced by DAC” and the “WBC count and liver function” value [2] was “no influence”. For the same compound, the WBC count ([2]; highest dose 3.600 mg/kg) was “affected the WBC count”, the “enzymatic stability in the presence of CDA” value [3] was “stable in the presence of CDA” and the “genome-wide DNA demethylation” value (HML58-3 cells [4]) was “as strong DNA demethylation as DAC”. For the same compound, the “DNA demethylation after pulse exposure” value [5] was “stronger demethylation”, the “DNA demethylation of exogenous UCHL1 promoter and OSR2 promoter CpG island” value [5] was “as strongly as DAC” and the IC50 (RKO cells) was 40 nM. The “Log PO/PBS” value [6] was 1.64, the “half-life (time to release DAC)” value [7] was 1 h and the “Stability t1/2 in PBS” value [7] was 20** + 1 h. For the same compound, the “t1/2 in PBS” value [7] was 1.0 h, the “DNA demethylation of two promoters in xenograft tumors” value (HCT116 xenografts) was “significant demethylation” and the tumor growth inhibition (HCT116 xenografts; highest dose 3.600 mg/kg) was “strongest effect”. For the same compound, the “tumor growth (tumor volume)” value (HCT116 xenografts) was “significant and dose-dependent inhibition of tumor growth” and the “number of genes upregulated more than twofold and to − 1.0 log2 value” (HML58-3) was 2060.
For `Nc1ncn([C@H]2C[C@H](O)[C@@H](CO)O2)c(=O)n1` [DAC, 2′-deoxy-5-azacytidine, reference compound], the “Stability t1/2 in PBS” value [8] is given as 20 h, the IC50 (TMK1 cells; Homo sapiens, TMK-1) is given as 5830 nM and the AUC ([1]; female, ICR, mouse, ip, 0.2 mg/kg, plasma, DAC (metabolite for OR compounds), equimolar dose, read-out: AUC 0 → lim, DAC) is given as 0.378 µM·h. For the same compound, the IC50 (HCT116 cells; Homo sapiens, HCT-116) was 850 nM, the body weight ([2]; 7.50 and 3.75 mg/kg, initial experiment) was “severe body weight loss” and the “WBC count and liver function (AST, ALT)” value ([2]; even at a lower dose (0.625 and 1.250 mg/kg)) was “affected”. For the same compound, the Enzymatic stability ([3]; cytidine deaminase, after 0.5 h) was “completely degraded; also recorded: Complete degradation after 0.5 h”, the DNMT1 protein level (DNMT1) was “depleted at 3 and 10 μM” and the “dose with strongest effect of DNA demethylation” value [5] was 1.0 µM. For the same compound, the IC50 (RKO cells; Homo sapiens) was 0.2 nM, the “tumor growth (tumor volume)” value (HCT116 xenografts) was “suppressed the xenograft growth” and the “number of genes upregulated more than twofold and to − 1.0 log2 value” (HML58-3) was 2011.
For `CC[Si](CC)(CC)OC[C@H]1O[C@@H](n2cnc(N)nc2=O)C[C@@H]1O` [OR-2100], the IC50 (TMK1 cells) was 1410 nM, the “total AUC of OR compound and metabolite DAC compared with DAC” value [1] was “larger AUCs than that of DAC” and the “AUC 0 → lim, DAC” value [1, 10] was 0.266 µM·h. The “AUC 0 → lim, Total” value ([1]; plasma) was 0.434 µM·h, the “AUC 0 → lim, OR compound” value ([1]; plasma) was 0.168 µM·h and the IC50 (HCT116 cells) was 1110 nM. For the same compound, the “WBC count and liver function” value [2] was “no influence”, the adverse effects ([2]; high dose) was “no adverse effects” and the “genome-wide DNA demethylation” value (HML58-3 cells [4]) was “as strong DNA demethylation as DAC”. For the same compound, the “DNA demethylation after pulse exposure” value [5] was “stronger demethylation”, the “DNA demethylation of exogenous UCHL1 promoter and OSR2 promoter CpG island” value [5] was “slightly lower demethylation” and the IC50 (RKO cells) was 60 nM. For the same compound, the “Log PO/PBS” value [6] was 2.14, the “half-life (time to release DAC)” value [7] was ≥ 14 h and the “Stability t1/2 in PBS” value [7] was 20** + 16 h. The “t1/2 in PBS” value [7] was 16 h, the “DNA demethylation of two promoters in xenograft tumors” value (HCT116 xenografts) was “significant demethylation” and the “tumor growth (tumor volume)” value (HCT116 xenografts) was “significant and dose-dependent inhibition of tumor growth”. For the same compound, the “number of genes upregulated more than twofold and to − 1.0 log2 value” (HML58-3) was 2041 and the “luciferase activity after pulse exposure” value (HML58-3 cells [9]) was “weaker than that of DAC”.
